In ChEMBL document CHEMBL1201862, “PubChem BioAssay data set” (2004):
The source made the active and inactive calls.

Legend:
SUMO-activating enzyme = SUMO-activating enzyme (Homo sapiens, UniProt Q9UBT2); assay: SUMOylation inhibitor hit validation, confirmation, SUMOylation inhibitor project, biochemical, AlphaScreen (AID 2018); type: functional
[1] = target: Intestinal-type alkaline phosphatase (Mus musculus, UniProt P24822); assay: PubChem AID 488785; type: functional
[2] = target: Intestinal-type alkaline phosphatase (Homo sapiens, UniProt P09923); assay: inhibition of human intestinal alkaline phosphatase – biochemical, dose response (AID 488876); type: functional
[3] = target: T1, Alkaline phosphatase, tissue-nonspecific isozyme (Homo sapiens, UniProt P05186); assay: TNAP enzyme activators, dose response, selectivity assay for mouse IAP activator project, biochemical, TNAP isozyme, mouse IAP uHTS hits (AID 488880); type: functional
T1 sequence (P05186 whole entry): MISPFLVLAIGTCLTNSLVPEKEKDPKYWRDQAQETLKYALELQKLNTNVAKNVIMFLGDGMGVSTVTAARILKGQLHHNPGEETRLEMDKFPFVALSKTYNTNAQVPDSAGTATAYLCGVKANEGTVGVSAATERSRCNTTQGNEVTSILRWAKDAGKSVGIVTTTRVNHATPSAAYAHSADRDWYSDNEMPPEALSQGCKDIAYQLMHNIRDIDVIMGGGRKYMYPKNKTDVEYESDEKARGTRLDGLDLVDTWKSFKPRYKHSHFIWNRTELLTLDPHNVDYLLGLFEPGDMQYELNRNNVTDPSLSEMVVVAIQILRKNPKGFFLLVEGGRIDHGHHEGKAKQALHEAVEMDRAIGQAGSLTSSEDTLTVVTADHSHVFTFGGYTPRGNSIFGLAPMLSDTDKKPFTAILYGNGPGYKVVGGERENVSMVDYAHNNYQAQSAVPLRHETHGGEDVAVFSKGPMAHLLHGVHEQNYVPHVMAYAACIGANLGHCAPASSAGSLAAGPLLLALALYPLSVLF

[4] = target: T2, G-protein coupled receptor 55 (Homo sapiens, UniProt Q9Y2T6); assay: GPR55 agonists via beta-arrestin recruitment, primary screen, imaging, U2OS cells, beta-arrestin-GFP redistribution (AID 1961); type: functional
[5] = target: T2, G-protein coupled receptor 55; assay: SAR analysis of selective Agonists of GPR55 using an Image-Based Assay. [Related pubchem assays (depositor defined):AID1961, AID1965]; type: functional
Cannabinoid receptor 2 [6] = target: T3, Cannabinoid receptor 2 (Homo sapiens, UniProt P34972); assay: SAR analysis of agonists of the Cannabinoid Receptor 2 using an Image-Based Assay - Set 2. [Related pubchem assays (depositor defined):AID1961, AID1965]; type: functional
Cannabinoid receptor 1 = Cannabinoid receptor 1 (Homo sapiens, UniProt P21554); assay: SAR analysis of antagonists of the Cannabinoid Receptor 1 using an Image-Based Assay. [Related pubchem assays (depositor defined):AID1961, AID1965]; type: functional
Cannabinoid receptor 2 [7] = target: T3, Cannabinoid receptor 2; assay: SAR analysis of antagonists of the Cannabinoid Receptor 2 using an Image-Based Assay - Set 2. [Related pubchem assays (depositor defined):AID1961, AID1965]; type: functional
[8] = test system: Streptococcus sp. 'group A'; assay: growth inhibition of control SK(-) GAS strain, dose response, counter-screen for streptokinase expression inhibitor project, luminescence, kanamycin, BacTiterGlo, confirmation (AID 1900); type: functional, organism-based
[9] = growth suppression of beta-catenin-knockout colon cells, dose response, cell-based, HCT116, human colon tumor (AID 1045); type: functional;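 also: HCT116 colon tumor cells with beta catenin knocked out; cells exposed to compound for 60 hours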
Mu-type opioid receptor [10] = target: T4, Mu-type opioid receptor (Homo sapiens, UniProt P35372); assay: MOR agonists by imaging, SAR follow-up, image-based (AID 2352); type: functional
[11] = target: Dual specificity protein phosphatase 3 (Homo sapiens, UniProt P51452); assay: SAR VHR1 Fluorescent Assay for In Vitro dose response studies Set 2. [Related pubchem assays (depositor defined):AID1654, AID1661, AID1878]; type: functional
[12] = growth suppression of PTEN-null colon cells, dose response, cell-based, HCT116 PTEN knockout (AID 1047); type: functional;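 also: HCT116 colon tumor cells with PTEN knocked out; cells exposed to compound for 60 hours before readout; potency for loss of cell viability measured by luminescence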
[13] = target: T5, Delta-type opioid receptor (Homo sapiens, UniProt P41143); assay: DOR antagonists, SAR follow-up, image-based (AID 2357); type: functional
[14] = target: T6, Kappa-type opioid receptor (Homo sapiens, UniProt P41145); assay: KOR antagonists by imaging, SAR follow-up, image-based (AID 2348); type: functional
[15] = ADAM10 inhibitors, peptide cleavage, dose response, biochemical, QFRET (AID 743254);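 also: ADAM10 enzyme with the DM2 quenched FRET peptide as substrate; EDANS fluorescence gain as the protease cuts the substrate; inhibitor potency against ADAM10 proteolytic activity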
Streptococcus = assay: Group A Streptococcus viability loss, dose response, counter-screen for streptokinase expression inhibitor project, luminescence, BacTiterGlo (AID 1915); type: functional, organism-based;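 also: potency for reduction of bacterial viability or growth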
Mu-type opioid receptor [16] = target: T4, Mu-type opioid receptor; assay: MOR antagonists, SAR follow-up, image-based (AID 2420); type: functional;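 also: compounds added before stimulation of receptor with agonist DAMGO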
Streptokinase A = target: T7, Streptokinase A (Streptococcus pyogenes serotype M1, UniProt P10520); assay: S. pyogenes streptokinase expression inhibitors, potency, dose response, plasminogen activation absorbance, OD405 (AID 1914); type: functional, Streptococcus pyogenes M1 GAS;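 also: secreted streptokinase activity via plasminogen activation per viability signal from cell pellet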
T7 sequence (P10520 whole entry): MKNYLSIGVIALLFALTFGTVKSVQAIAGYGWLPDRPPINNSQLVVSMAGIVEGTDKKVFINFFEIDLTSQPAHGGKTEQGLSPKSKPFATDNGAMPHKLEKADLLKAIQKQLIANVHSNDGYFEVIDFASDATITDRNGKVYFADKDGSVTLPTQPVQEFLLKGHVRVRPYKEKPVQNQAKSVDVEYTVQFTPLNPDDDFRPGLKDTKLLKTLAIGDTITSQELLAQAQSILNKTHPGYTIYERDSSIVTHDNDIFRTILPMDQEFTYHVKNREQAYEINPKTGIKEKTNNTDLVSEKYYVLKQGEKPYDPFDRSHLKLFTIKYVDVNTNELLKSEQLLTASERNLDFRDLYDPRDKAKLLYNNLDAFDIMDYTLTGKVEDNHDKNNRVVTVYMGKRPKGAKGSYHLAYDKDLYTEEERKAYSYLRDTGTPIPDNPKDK

[17] = target: T5, Delta-type opioid receptor; assay: DOR agonists, SAR follow-up, image-based (AID 2370); type: functional
[18] = target: T6, Kappa-type opioid receptor; assay: kappa opioid receptor blockers, cell-based, luminescence, beta-arrestin, SAR follow-up (AID 2285); type: functional
[19] = target: T6, Kappa-type opioid receptor; assay: KOR agonist analogs, imaging readout, SAR follow-up, image-based (AID 2359); type: functional
[20] = Luminescence Cell-Based Dose Retest to Confirm Inhibitors of Cancer Stem Cells. [Related pubchem assays (depositor defined):AID2717, AID2721]; type: functional; conditions: Homo sapiens
[21] = target: T8, Tyrosine-protein phosphatase non-receptor type 7 (Homo sapiens, UniProt P35236); assay: SAR analysis of chemical inhibitors of HePTP using a Fluorescent assay - Set 2. [Related pubchem assays (depositor defined):AID1059, AID1077, AID1661, AID2085, AID521]; type: functional
T8 sequence (P35236 whole entry): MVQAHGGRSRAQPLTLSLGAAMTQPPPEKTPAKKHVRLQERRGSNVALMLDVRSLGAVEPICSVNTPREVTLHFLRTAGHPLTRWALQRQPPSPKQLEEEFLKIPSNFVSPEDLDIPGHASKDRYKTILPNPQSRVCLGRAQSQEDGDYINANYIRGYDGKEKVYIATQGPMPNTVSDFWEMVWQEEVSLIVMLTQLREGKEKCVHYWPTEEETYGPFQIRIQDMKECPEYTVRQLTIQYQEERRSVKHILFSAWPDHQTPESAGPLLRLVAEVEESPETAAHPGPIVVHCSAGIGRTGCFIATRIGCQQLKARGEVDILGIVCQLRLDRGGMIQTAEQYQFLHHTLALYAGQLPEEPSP

[22] = target: Disintegrin and metalloproteinase domain-containing protein 17 (Homo sapiens, UniProt P78536); assay: ADAM17 protease inhibitors, dose response, counter-screen for ADAM10 exosite inhibitor project, biochemical, quenched FRET substrate (AID 743253)
[23] = target: T6, Kappa-type opioid receptor; type: functional
Beta-galactosidase = Beta-galactosidase (Escherichia coli, UniProt Q8VNN2); type: functional
[24] = target: T5, Delta-type opioid receptor; assay: HTS Image-Based Screen for Antagonists of the DOR Receptor. [Related pubchem assays (depositor defined):AID1777, AID1785, AID1786, AID2133]; type: functional
Mu-type opioid receptor [25] = target: T4, Mu-type opioid receptor; assay: HTS Image-Based Screen for Agonists of the MOR Receptor. [Related pubchem assays (depositor defined):AID1777, AID1785, AID1786, AID2133]; type: functional
[26] = target: T5, Delta-type opioid receptor; assay: HTS Image-Based Screen for Agonists of the DOR Receptor. [Related pubchem assays (depositor defined):AID1777, AID1786, AID2133]; type: functional
[27] = target: T6, Kappa-type opioid receptor; type: functional; remark: listed apart in the source
Tumor necrosis factor = Tumor necrosis factor (Homo sapiens, UniProt P01375); assay: TNFa-triggered NF-kB activation inhibitors, SAR follow-up, cell-based, revised (AID 2337); type: functional
HEK293 = assay: cells; conditions: Homo sapiens
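For AC50 in this document: cells exposed to compound for roughly 70 hours or longer before luminescence read.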

T6 sequence (P41145 whole entry): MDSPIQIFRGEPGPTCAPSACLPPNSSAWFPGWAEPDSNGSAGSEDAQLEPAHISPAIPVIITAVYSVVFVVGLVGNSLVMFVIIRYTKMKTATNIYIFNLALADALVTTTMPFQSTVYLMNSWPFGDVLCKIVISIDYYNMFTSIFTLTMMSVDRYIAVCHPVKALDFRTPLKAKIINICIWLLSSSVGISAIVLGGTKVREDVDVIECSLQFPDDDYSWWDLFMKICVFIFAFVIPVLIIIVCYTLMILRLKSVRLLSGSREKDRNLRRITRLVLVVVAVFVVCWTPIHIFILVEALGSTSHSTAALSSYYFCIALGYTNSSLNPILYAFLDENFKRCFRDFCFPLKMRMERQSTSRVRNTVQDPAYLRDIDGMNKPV
T5 sequence (P41143 whole entry): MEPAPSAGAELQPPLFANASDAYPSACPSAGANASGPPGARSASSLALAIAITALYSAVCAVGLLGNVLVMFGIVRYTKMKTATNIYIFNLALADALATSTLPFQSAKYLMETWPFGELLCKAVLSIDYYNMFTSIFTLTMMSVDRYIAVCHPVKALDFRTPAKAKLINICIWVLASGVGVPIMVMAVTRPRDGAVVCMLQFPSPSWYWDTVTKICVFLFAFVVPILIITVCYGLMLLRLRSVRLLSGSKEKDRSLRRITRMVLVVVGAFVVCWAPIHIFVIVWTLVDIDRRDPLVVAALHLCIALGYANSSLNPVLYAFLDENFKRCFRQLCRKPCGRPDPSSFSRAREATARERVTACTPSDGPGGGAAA
T4 sequence (P35372 whole entry): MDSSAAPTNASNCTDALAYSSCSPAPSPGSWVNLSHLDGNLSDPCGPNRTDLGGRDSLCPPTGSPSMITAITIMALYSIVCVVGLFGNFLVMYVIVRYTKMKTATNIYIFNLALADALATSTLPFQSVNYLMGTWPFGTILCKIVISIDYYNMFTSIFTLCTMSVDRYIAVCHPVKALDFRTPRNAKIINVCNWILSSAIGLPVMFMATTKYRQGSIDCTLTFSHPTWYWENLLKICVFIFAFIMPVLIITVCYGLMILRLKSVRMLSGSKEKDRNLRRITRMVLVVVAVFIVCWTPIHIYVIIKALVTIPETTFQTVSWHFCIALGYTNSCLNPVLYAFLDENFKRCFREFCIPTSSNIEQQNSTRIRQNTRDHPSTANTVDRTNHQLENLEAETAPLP
T2 sequence (Q9Y2T6 whole entry): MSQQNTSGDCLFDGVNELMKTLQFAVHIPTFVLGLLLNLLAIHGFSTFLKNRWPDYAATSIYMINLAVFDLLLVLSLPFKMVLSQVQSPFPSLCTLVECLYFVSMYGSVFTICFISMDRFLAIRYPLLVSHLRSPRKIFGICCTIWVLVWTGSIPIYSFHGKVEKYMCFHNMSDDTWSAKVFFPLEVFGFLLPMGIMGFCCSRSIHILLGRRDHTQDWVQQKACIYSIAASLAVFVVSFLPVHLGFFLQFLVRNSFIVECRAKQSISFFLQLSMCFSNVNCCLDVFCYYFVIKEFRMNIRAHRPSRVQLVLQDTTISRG
T3 sequence (P34972 whole entry): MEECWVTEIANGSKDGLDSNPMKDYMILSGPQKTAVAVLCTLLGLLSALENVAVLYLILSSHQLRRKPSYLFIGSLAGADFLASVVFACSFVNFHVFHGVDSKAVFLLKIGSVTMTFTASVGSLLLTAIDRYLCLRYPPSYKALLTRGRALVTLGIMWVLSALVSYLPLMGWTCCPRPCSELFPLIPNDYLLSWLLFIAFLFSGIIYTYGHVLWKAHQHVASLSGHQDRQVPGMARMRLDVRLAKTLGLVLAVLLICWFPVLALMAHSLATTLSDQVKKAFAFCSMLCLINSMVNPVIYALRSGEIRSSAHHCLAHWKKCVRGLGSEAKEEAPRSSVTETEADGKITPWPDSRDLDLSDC
Chain of Intestinal-type alkaline phosphatase (Homo sapiens, UniProt P09923) (P09923 whole entry): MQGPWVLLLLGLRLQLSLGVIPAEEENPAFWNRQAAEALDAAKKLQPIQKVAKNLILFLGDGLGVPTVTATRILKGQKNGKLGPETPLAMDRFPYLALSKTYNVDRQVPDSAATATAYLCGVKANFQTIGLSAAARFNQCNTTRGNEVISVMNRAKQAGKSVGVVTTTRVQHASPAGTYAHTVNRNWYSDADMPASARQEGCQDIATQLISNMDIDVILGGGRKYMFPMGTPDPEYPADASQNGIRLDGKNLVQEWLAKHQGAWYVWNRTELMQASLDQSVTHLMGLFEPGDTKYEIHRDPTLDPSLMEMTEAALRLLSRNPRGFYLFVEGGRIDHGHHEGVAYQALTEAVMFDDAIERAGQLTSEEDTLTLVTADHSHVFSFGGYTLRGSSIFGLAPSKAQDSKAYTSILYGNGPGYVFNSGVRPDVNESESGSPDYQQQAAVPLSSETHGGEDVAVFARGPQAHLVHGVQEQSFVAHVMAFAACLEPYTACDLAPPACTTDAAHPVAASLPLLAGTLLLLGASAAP
Chain of Beta-galactosidase (Q8VNN2 whole entry): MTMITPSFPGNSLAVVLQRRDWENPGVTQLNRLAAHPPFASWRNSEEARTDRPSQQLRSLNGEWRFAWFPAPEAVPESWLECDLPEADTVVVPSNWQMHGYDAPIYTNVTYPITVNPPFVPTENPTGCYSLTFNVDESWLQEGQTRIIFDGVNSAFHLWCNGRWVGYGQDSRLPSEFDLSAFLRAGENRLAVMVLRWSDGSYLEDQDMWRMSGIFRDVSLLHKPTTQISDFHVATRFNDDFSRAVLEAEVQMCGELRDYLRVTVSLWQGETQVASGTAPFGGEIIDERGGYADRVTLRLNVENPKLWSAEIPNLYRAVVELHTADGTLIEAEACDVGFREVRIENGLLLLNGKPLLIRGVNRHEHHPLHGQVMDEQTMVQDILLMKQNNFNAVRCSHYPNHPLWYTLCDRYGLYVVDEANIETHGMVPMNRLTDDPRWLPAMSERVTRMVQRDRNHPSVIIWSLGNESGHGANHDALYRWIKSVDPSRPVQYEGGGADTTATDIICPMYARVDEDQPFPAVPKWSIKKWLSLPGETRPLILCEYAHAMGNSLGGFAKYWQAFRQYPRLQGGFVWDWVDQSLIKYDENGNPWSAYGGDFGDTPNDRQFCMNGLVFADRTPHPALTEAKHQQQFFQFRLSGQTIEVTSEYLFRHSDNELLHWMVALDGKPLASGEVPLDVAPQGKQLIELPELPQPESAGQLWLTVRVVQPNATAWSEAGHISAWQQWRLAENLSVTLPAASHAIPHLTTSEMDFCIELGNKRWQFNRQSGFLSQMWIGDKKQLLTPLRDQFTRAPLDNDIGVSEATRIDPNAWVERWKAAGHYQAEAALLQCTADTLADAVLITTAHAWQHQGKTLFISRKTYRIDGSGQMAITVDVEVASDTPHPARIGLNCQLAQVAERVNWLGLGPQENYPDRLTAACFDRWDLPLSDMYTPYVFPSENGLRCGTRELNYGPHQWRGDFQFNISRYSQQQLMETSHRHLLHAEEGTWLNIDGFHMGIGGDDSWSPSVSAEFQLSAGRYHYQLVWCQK
Chain of Cannabinoid receptor 1 (P21554 whole entry): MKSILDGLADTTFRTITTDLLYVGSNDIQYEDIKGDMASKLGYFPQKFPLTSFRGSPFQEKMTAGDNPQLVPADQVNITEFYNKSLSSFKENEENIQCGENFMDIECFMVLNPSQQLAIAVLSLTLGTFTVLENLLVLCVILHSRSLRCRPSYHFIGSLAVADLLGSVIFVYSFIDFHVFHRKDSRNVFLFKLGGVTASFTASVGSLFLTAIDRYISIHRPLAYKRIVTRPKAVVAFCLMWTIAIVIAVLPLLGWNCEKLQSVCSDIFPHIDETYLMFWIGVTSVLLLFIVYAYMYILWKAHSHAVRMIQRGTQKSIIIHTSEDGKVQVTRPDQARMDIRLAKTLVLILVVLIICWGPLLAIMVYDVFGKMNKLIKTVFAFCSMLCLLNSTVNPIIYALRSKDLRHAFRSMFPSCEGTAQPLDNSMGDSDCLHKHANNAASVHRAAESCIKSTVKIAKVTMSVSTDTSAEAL
Chain of SUMO-activating enzyme (Q9UBE0 whole entry): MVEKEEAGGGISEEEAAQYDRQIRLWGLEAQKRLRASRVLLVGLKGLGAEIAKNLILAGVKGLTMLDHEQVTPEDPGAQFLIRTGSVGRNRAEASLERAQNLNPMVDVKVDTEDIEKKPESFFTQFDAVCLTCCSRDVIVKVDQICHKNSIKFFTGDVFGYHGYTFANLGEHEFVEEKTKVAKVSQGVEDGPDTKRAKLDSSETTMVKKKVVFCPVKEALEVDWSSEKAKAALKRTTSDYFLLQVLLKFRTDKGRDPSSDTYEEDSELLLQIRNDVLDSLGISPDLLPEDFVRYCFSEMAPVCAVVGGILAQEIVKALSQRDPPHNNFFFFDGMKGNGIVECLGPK
Chain of SUMO-activating enzyme (Q9UBT2 whole entry): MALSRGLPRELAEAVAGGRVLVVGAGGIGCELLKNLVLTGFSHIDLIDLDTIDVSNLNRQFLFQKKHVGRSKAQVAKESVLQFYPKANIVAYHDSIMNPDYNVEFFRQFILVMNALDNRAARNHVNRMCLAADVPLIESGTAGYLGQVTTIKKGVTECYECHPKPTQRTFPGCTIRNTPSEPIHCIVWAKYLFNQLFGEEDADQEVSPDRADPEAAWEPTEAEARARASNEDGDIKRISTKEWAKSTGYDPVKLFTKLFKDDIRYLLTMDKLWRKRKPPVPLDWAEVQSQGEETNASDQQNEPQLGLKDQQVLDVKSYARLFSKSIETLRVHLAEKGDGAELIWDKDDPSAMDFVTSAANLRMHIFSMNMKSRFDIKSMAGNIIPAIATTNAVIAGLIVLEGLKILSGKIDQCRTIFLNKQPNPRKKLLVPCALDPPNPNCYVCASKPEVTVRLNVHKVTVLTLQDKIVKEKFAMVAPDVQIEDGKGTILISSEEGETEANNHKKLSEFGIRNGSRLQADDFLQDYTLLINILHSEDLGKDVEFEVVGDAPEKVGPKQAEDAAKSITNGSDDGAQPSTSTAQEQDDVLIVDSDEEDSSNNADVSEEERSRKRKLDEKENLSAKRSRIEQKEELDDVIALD

## CCCCCn1c(N)c(C#N)c2nc3ccccc3nc21
SUMO-activating enzyme
  IC50: 15.7 µM (active)

## N#Cc1cccc(NC(=O)CCNS(=O)(=O)c2ccc3nc(O)oc3c2)c1
[1]
  IC50: 21.7 µM (active)
[2]
  IC50: > 100 µM (inactive)
[3]
  EC50: > 100 µM (inactive)

## Cc1cccc(N2CCN(C(=O)c3cc(S(=O)(=O)N(C)C)ccc3N3CCCC3)CC2)c1C
[4]
  EC50: 0.508 µM (active)
[5]
  EC50: 0.263 µM (active)
Cannabinoid receptor 2 [6]
  EC50: > 32 µM (inactive)
Cannabinoid receptor 1
  IC50: 21.7 µM (inactive)
Cannabinoid receptor 2 [7]
  IC50: 15.1 µM (inactive)

## O=C(NC(NC(=S)Nc1cccc(Cl)c1)C(Cl)(Cl)Cl)OCc1ccccc1 (centres undefined)
[8]
  EC50: 3.59 µM (active)
[9]
  EC50: 19.6 µM (active)
Mu-type opioid receptor [10]
  EC50: > 32 µM (inactive)
[11]
  IC50: > 100 µM (inactive)
[12]
  EC50: 19.7 µM (active)
[13]
  IC50: 24.4 µM (inactive)
[14]
  IC50: 12.3 µM (inactive)
[15]
  IC50: > 7.72 µM (active)
Streptococcus
  EC50: 5.92 µM (active)
Mu-type opioid receptor [16]
  IC50: > 32 µM (inactive)
Streptokinase A
  EC50: 3.92 µM (active)
[17]
  EC50: > 32 µM (inactive)
[18]
  IC50: > 10 µM (inactive)
[19]
  EC50: > 32 µM (inactive)
[20]
  AC50: 1.53 µM (active)
[21]
  IC50: 87 µM (active)
[22]
  IC50: > 69.5 µM (inactive)

## Cc1cn(-c2cc(NC(=O)c3ccc(C)c(NC(=O)c4cccc(-c5cnnc(O)c5)c4)c3)cc(C(F)(F)F)c2)cn1
[23]
  IC50: 5.1 µM
Beta-galactosidase
  EC50: > 31.5 µM (inactive)
[24]
  IC50: > 32 µM (inactive)
Mu-type opioid receptor [25]
  EC50: > 32 µM (inactive)
[26]
  EC50: > 32 µM (inactive)
[27]
  IC50: 9.01 µM (active)

## CC(=O)c1ccc(N2CCN(S(=O)(=O)c3ccc4c(c3)CCN4C(=O)C3CC3)CC2)cc1
Tumor necrosis factor
  IC50: 16.6 µM (active)
HEK293
  IC50: > 20 µM (inactive)
